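Briefly, cells in 96-well plates were exposed to five compound concentrations for 48 h, and endpoints were estimated by linear interpolation. TGI marks complete inhibition of growth.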 Where a SMILES comes first, the peptide text is derived from it. The star is where a group is joined. Boc = CC(C)(C)OC(=O)*; Bn = c1ccc(C*)cc1
Experiments:
Test in all cases: inhibition of tumour cell growth, NCI panel, 48 h
NCI-H23 lung = system: NCI-H23 lung
OVCAR-8 ovarian = system: OVCAR-8 ovarian
NCI-H460 lung = system: NCI-H460 lung
OVCAR-5 ovarian = system: OVCAR-5 ovarian
EKVX NSCLC = system: EKVX NSCLC
UACC-257 melanoma = system: UACC-257 melanoma
MDA-MB-231 breast = system: MDA-MB-231 breast
M14 melanoma = system: M14 melanoma
SF-539 CNS = system: SF-539 CNS
SNB-75 CNS = system: SNB-75 CNS
T-47D breast = system: T-47D breast
HCT-116 colon = system: HCT-116 colon
HCC-2998 colon = system: HCC-2998 colon
HS 578T breast = system: HS 578T breast

| SMILES | TGI (NCI-H23 lung) [µM] | TGI (OVCAR-8 ovarian) [µM] | TGI (NCI-H460 lung) [µM] | TGI (OVCAR-5 ovarian) [µM] | TGI (EKVX NSCLC) [µM] | TGI (UACC-257 melanoma) [µM] | TGI (MDA-MB-231 breast) [µM] | TGI (M14 melanoma) [µM] | TGI (SF-539 CNS) [µM] | TGI (SNB-75 CNS) [µM] | TGI (T-47D breast) [µM] | TGI (HCT-116 colon) [µM] | TGI (HCC-2998 colon) [µM] | TGI (HS 578T breast) [µM] |
| --- | --- | --- | --- | --- | --- | --- | --- | --- | --- | --- | --- | --- | --- | --- |
| NC(N)=NS(=O)(=O)c1ccc(NNc2c3ccccc3nc3c(C(=O)Nc4ccc(S(=O)(=O)Nc5ncccn5)cc4)cccc23)cc1 | > 100 | > 100 | > 100 | > 100 | 96.2 | > 100 | > 100 | 89.7 | > 100 | > 100 | > 100 | 78.1 | > 100 | – |
| CCOC(=O)Nc1[nH]cc(-c2ccccc2)c1C#N | > 100 | > 100 | – | > 100 | > 100 | – | > 100 | > 100 | – | > 100 | – | > 100 | – | > 100 |
| COc1cc(C2C3C=CC=C4CC=CC(=C43)C3CCC(=O)N32)cc(OC)c1OC (stereo not given) | – | > 100 | > 100 | > 100 | > 100 | > 100 | > 100 | > 100 | > 100 | > 100 | > 100 | > 100 | – | – |
| C=CCCON(C(=O)OC(C)(C)C)C(C)(C)C | > 100 | > 100 | > 100 | > 100 | > 100 | > 100 | > 100 | > 100 | > 100 | > 100 | > 100 | > 100 | – | > 100 |
| Cc1ccc(-c2c(C#N)c(-c3ccc(C)cc3)n(NS(=O)(=O)c3ccccc3)c(=O)c2C#N)cc1 | – | > 100 | > 100 | > 100 | > 100 | > 100 | > 100 | > 100 | 61.2 | > 100 | – | > 100 | > 100 | > 100 |
| CCCC(=O)NC(NC1CCCCC1)(C(=O)OCC)C(F)(F)F (stereo not given) | > 100 | > 100 | > 100 | > 100 | > 100 | > 100 | – | > 100 | > 100 | > 100 | > 100 | > 100 | > 100 | > 100 |
| CC(C)(C)OC(=O)NC1CCCCC1NC(=O)C(=O)NC1CCCCC1NC(=O)OC(C)(C)C (stereo not given) | > 100 | > 100 | > 100 | > 100 | > 100 | > 100 | > 100 | > 100 | > 100 | – | > 100 | > 100 | > 100 | 57.1 |
| O=C1C2SC34c5c2c2ccccc2n5CCC3CCCN14 (stereo not given) | > 100 | > 100 | – | > 100 | > 100 | 95.5 | > 100 | > 100 | > 100 | – | > 100 | > 100 | – | > 100 |
| COC(=O)C(CC(C)C)NC(=O)C(C)NC(=O)C(Cc1ccc(OCc2ccccc2)cc1)NC(=O)C(COCc1ccccc1)NC(=O)OC(C)(C)C (stereo not given) (Boc-S(Bn)Y(Bn)AL-OMe; configuration not given here) | > 100 | > 100 | > 100 | > 100 | > 100 | – | – | > 100 | > 100 | > 100 | > 100 | > 100 | – | > 100 |
| CCn1c(-c2ccccc2)cs/c1=N\C(P(=O)(O)O)P(=O)(O)O | > 100 | > 100 | > 100 | > 100 | > 100 | > 100 | > 100 | > 100 | > 100 | > 100 | – | > 100 | > 100 | > 100 |
| CN(CCSCCN(C)C(=O)OC(C)(C)C)C(=O)OC(C)(C)C | > 100 | > 100 | > 100 | > 100 | > 100 | > 100 | > 100 | > 100 | > 100 | > 100 | – | > 100 | > 100 | > 100 |
| Cc1ccc(/C=N/Nc2cc(C)c3cccc(C)c3n2)s1 | 35.2 | 26.9 | – | 28.2 | 38.2 | 58.9 | – | 18.2 | 41.1 | > 100 | > 100 | 12.4 | 22.7 | 41.6 |
| O=c1oc2ccccc2cc1-c1cc2ccccn2c1 | > 100 | > 100 | > 100 | > 100 | > 100 | > 100 | > 100 | > 100 | – | > 100 | – | > 100 | – | > 100 |
| Fc1ccc2c(c1)nc1n2C(c2c(Cl)cccc2Cl)SC1 (stereo not given) | 26.2 | 29 | 20.8 | 28.9 | – | 34.3 | 30.5 | 29.9 | 34.8 | 25.9 | 38.4 | 18.3 | 29.9 | 34.7 |
| Nc1ccc2c(c1)C(=O)N1CCC[C@H]1C(=O)N2 | > 100 | > 100 | > 100 | > 100 | > 100 | > 100 | > 100 | > 100 | > 100 | > 100 | > 100 | > 100 | > 100 | – |
| CO[C@@]12C[C@@H](C)C3=CCC(C)=C3CC1=C(C)C(=O)O2 | > 100 | > 100 | > 100 | > 100 | > 100 | > 100 | > 100 | > 100 | – | > 100 | – | > 100 | > 100 | > 100 |
| CC1(C)/C(=N\NC(N)=O)C2CCC1C2 (stereo not given) | > 100 | > 100 | > 100 | > 100 | > 100 | > 100 | – | > 100 | – | > 100 | > 100 | > 100 | – | > 100 |
| CCCNC(=O)NNC(=O)c1c[nH]c2nc(C)ccc2c1=O | > 100 | > 100 | > 100 | > 100 | > 100 | > 100 | > 100 | > 100 | – | – | > 100 | > 100 | – | > 100 |

From PubChem BioAssay (NCI)
